# Measured values: PMC6407917, “Identification of GSK3186899/DDD853651 as a Preclinical Development Candidate for the Treatment of Visceral Leishmaniasis” (Journal of Medicinal Chemistry, 2018)
# Legend:
# Test in all cases: biochemical
# Design in all cases: species or system HEK293/K-562/placenta mixed human extract; Kinobeads chemoproteomic competition binding, quantified by TMT LC-MS/MS, dose response up to 20 uM
# MAP3K3 = MAP3K3 (Homo sapiens, UniProt Q99759)
# AZI2 = AZI2 (Homo sapiens, UniProt Q9H6S1)
# MAP2K4 = MAP2K4 (Homo sapiens, UniProt P45985)
# EIF2AK4 = EIF2AK4 (Homo sapiens, UniProt Q9P2K8)
# KDR = KDR (Homo sapiens, UniProt P35968)
# PDPK1 = PDPK1 (Homo sapiens, UniProt O15530)
# PIP4K2C = PIP4K2C (Homo sapiens, UniProt Q8TBX8)
# GAK = GAK (Homo sapiens, UniProt O14976)
# EPHB6 = EPHB6 (Homo sapiens, UniProt O15197)
# BMPR1A = BMPR1A (Homo sapiens, UniProt P36894)
# CDK5 = CDK5 (Homo sapiens, UniProt Q00535)
# DAPK1 = DAPK1 (Homo sapiens, UniProt P53355)
# RIOK2 = RIOK2 (Homo sapiens, UniProt Q9BVS4)
# YES1 = YES1 (Homo sapiens, UniProt P07947)
# YWHAZ = YWHAZ (Homo sapiens, UniProt P63104)
# RPS6KA1 = RPS6KA1 (Homo sapiens, UniProt Q15418)
# PIM2 = PIM2 (Homo sapiens, UniProt Q9P1W9)
# PRKCQ = PRKCQ (Homo sapiens, UniProt Q04759)
# PAK4 = PAK4 (Homo sapiens, UniProt O96013)
# IKBKG = IKBKG (Homo sapiens, UniProt Q9Y6K9)
# CSNK1A1 = CSNK1A1 (Homo sapiens, UniProt P48729)
# CSNK1A1, sequence (P48729 whole entry): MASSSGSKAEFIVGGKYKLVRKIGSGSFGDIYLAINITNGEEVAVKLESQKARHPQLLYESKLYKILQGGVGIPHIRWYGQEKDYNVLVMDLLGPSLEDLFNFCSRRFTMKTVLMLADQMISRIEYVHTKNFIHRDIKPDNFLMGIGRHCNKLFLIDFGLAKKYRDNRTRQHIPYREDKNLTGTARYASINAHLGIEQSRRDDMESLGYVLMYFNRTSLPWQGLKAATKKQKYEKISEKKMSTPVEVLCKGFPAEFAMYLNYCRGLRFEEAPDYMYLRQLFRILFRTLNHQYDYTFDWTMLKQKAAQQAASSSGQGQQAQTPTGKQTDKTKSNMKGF
# EPHB6, sequence (O15197 whole entry): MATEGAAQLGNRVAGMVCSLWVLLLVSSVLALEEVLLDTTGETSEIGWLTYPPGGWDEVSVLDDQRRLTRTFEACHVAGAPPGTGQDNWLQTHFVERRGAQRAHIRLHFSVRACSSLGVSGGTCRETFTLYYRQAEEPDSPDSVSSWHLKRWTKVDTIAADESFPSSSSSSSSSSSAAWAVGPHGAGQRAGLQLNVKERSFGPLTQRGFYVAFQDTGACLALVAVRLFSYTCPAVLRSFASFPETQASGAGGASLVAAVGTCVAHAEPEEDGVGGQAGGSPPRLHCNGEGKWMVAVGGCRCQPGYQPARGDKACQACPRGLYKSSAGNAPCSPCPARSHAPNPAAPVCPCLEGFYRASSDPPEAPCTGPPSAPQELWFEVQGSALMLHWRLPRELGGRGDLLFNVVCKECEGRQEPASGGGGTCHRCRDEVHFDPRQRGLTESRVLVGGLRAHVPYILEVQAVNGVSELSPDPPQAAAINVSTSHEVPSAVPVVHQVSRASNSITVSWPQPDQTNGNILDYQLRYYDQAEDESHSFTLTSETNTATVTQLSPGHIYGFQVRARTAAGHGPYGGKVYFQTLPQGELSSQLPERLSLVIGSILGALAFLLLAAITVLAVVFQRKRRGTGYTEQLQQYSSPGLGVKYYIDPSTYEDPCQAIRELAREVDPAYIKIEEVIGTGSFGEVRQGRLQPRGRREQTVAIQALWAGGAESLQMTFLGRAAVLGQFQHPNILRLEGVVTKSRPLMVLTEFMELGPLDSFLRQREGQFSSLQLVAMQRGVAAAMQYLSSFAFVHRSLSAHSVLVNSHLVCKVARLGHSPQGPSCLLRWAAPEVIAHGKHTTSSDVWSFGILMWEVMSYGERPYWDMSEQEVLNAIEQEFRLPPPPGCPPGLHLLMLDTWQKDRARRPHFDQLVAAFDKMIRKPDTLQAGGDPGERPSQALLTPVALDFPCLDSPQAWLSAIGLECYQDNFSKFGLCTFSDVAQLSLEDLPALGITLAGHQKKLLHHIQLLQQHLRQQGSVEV
# YES1, sequence (P07947 whole entry): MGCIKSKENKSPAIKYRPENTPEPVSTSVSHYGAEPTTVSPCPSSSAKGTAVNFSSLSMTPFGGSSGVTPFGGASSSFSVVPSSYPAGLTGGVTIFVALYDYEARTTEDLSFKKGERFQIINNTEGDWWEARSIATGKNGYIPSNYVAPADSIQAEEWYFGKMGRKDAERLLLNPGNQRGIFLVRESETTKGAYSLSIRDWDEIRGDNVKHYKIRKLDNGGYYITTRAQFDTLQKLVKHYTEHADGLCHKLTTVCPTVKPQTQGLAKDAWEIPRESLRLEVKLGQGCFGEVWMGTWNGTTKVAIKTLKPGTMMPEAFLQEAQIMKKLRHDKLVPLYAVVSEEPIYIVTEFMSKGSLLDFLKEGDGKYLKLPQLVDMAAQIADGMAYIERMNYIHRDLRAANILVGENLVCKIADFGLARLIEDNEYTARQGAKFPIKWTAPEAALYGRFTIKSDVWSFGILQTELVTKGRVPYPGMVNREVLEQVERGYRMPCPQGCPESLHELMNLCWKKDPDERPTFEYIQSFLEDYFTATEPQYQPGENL
# MAP2K4, sequence (P45985 whole entry): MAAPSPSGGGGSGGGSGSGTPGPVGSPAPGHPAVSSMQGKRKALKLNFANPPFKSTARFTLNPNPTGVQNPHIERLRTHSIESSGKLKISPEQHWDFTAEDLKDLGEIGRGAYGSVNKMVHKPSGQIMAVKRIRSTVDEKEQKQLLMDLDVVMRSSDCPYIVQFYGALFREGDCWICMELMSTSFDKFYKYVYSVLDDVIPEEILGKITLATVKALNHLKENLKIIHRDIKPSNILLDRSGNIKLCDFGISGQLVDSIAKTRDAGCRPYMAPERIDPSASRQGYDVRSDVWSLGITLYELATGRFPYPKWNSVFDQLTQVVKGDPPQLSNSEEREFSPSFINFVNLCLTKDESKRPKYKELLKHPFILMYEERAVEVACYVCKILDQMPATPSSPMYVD
# RPS6KA1, sequence (Q15418 whole entry): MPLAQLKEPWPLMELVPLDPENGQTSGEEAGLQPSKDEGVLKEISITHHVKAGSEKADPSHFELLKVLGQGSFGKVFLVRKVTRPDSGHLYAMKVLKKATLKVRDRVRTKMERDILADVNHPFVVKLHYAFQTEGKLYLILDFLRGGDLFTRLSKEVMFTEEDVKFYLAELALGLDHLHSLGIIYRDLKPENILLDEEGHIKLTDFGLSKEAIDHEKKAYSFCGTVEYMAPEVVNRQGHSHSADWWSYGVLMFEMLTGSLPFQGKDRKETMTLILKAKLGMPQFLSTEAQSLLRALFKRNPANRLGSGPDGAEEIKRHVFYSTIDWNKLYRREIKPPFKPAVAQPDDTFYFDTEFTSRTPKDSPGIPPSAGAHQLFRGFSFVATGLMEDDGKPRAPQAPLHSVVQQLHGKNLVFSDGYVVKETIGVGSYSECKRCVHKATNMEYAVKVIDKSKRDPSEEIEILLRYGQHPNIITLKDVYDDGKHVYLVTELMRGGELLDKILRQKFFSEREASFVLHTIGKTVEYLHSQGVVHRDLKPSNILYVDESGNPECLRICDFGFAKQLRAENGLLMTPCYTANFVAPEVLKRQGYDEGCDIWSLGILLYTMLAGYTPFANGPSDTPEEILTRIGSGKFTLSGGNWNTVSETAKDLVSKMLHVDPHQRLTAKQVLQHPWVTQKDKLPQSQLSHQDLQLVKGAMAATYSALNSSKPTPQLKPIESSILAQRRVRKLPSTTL
# RIOK2, sequence (Q9BVS4 whole entry): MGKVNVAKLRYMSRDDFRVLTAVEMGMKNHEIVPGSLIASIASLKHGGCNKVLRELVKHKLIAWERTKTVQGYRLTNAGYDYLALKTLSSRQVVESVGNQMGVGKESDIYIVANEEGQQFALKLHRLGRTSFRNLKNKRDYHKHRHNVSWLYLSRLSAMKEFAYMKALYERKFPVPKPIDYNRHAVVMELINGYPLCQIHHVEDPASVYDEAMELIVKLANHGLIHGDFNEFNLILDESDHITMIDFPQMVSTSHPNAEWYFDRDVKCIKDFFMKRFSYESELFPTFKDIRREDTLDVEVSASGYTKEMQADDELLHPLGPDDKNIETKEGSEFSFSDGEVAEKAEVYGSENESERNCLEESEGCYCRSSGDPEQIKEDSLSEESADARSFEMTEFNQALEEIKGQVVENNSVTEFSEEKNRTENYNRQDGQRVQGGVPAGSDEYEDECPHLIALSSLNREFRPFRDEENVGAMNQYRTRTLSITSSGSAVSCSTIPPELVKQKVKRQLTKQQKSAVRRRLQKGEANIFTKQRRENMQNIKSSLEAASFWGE
# PRKCQ, sequence (Q04759 whole entry): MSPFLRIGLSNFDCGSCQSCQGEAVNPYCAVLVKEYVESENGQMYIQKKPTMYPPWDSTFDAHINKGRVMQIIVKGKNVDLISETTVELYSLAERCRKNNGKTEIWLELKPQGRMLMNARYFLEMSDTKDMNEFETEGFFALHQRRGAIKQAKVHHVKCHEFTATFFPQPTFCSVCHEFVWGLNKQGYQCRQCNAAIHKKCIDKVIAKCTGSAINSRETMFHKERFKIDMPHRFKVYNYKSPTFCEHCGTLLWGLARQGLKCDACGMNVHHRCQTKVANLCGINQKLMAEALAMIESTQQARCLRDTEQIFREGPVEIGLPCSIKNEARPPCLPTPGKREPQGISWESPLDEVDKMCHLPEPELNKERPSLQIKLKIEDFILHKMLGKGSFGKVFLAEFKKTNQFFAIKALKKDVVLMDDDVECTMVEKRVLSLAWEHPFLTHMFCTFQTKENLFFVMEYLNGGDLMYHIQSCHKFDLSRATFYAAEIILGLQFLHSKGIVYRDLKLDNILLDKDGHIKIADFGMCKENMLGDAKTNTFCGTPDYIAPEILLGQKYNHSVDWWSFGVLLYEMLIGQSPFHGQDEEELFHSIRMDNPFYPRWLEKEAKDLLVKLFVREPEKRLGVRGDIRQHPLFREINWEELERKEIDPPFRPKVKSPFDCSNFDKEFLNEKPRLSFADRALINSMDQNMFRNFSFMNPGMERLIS
# PDPK1, sequence (O15530 whole entry): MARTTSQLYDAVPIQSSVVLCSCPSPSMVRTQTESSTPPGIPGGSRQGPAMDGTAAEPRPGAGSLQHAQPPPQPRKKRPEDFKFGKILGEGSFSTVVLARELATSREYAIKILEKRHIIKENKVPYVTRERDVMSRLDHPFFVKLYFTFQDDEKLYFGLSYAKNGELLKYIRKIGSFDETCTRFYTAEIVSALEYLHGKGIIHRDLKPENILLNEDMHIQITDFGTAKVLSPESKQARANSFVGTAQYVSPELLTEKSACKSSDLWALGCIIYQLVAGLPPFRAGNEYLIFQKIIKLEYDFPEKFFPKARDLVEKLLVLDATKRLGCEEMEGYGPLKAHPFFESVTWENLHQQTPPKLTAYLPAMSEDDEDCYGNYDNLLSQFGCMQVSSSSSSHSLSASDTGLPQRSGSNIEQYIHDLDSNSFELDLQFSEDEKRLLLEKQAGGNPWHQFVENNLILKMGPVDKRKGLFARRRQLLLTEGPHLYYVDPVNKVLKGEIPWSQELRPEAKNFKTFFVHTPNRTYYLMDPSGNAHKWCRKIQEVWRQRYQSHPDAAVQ
structure (smiles),measurement,setting,value
"COc1nc(N[C@H]2CC[C@H](NS(=O)(=O)CC(C)C)CC2)nc2[nH]nc(N3CCOC[C@H]3C)c12 [compound 39, N-(trans-4-((4-Methoxy-3-((R)-3-methylmorpholino)-1H-pyrazolo[3,4-d]pyrimidin-6-yl)amino)cyclohexyl)-2-methylpropane-1-sulfonamide]",IC50,MAP3K3,≥ 20 µM
same,IC50,AZI2,≥ 20 µM
same,IC50,MAP2K4,≥ 20 µM
same,IC50,EIF2AK4,≥ 20 µM
same,IC50,KDR,≥ 20 µM
same,IC50,PDPK1,≥ 20 µM
same,IC50,PIP4K2C,≥ 20 µM
same,IC50,GAK,≥ 20 µM
same,IC50,EPHB6,3.3 µM
same,IC50,BMPR1A,≥ 20 µM
same,IC50,CDK5,12 µM
same,IC50,DAPK1,≥ 20 µM
same,IC50,RIOK2,≥ 20 µM
same,IC50,YES1,≥ 20 µM
same,IC50,YWHAZ,≥ 20 µM
same,IC50,RPS6KA1,≥ 20 µM
same,IC50,PIM2,≥ 20 µM
same,IC50,PRKCQ,≥ 20 µM
same,IC50,PAK4,≥ 20 µM
same,IC50,IKBKG,≥ 20 µM
same,IC50,CSNK1A1,≥ 20 µM
